In PubChem BioAssay AID743395 (Broad Institute, 2014):

Test system: HepG2 viability, CellTiter-Glo ATP luminescence, 72 h
Assay: viability loss in human hepatoma cells – cell-based, CellTiter-Glo luminescence, cherry-pick, set 2, cytotoxicity control, dose response (AID 743395)

**Q.** How did the AC35 turn out when `COc1cccc(S(=O)(=O)N2C[C@@H]3N[C@H](C2)C3c2ccc(-c3cccc(C)c3)cc2)c1` (stereo not given in full) was run?
**A.** Its AC35 is 12 µM.

**Q.** How did the AC35 turn out when `CCCC#Cc1ccc([C@H]2[C@@H](CO)N3CCCCN(S(=O)(=O)c4ccccc4C)C[C@H]23)cc1` was run?
**A.** Its AC35 is 8.96 µM.

**Q.** How did the AC35 turn out when `C=C1C(=O)[C@]23C[C@H]1CC[C@H]2[C@]1(C)[C@@H](OC(C)=O)CC[C@@](C)(C(=O)O)[C@H]1C[C@@H]3O` was run?
**A.** Its AC35 is 11.3 µM.

**Q.** `CCc1cc(-c2nnn(CCC3COCCO3)c2CC)ccc1-c1cn(Cc2ccc3ccccc3c2)nn1` (stereo not given) was tested. Which AC35 did it give?
**A.** Its AC35 is 15.8 µM.

**Q.** Which AC35 does the source give for `CCCC(=O)NC(c1ccc(C(C)C)cc1)c1ccc2cccnc2c1O` (stereo not given) here?
**A.** The AC35 was 0.948 µM.

**Q.** `CCN(CC)c1ccc(/C=N/NC(=O)c2cnccn2)cc1` was tested. Which AC35 did it give?
**A.** The AC35 was 6.68 µM.

**Q.** Which AC35 does the source give for `O=c1c2ccccc2oc2cc(-c3ccc4[nH]ccc4c3)ccc12` here?
**A.** Its AC35 is 4.72 µM.

**Q.** `COc1ccccc1C(=O)NC(=S)/C=C1/N(C)c2ccccc2C1(C)C` was tested. Which AC35 did it give?
**A.** Its AC35 is 16 µM.

**Q.** With `N#CC(C#N)=C1C=C2C=C(N3CCCCCC3)CCC2CC1` (stereo not given) as the molecule, how does the AC35 read?
**A.** The AC35 was 18 µM.

**Q.** Which AC35 does the source give for `CCOc1ccc(NC(=O)c2cc(OC)nc3ccccc23)cc1` here?
**A.** Its AC35 is 14.3 µM.

**Q.** With `Nc1sc(-c2ccccc2)cc1-c1n[nH]c(=S)n1C1CCCCC1` as the molecule, how does the AC35 read?
**A.** The AC35 was 7.54 µM.

**Q.** `C[C@H]1CN([C@@H](C)CO)S(=O)(=O)c2ccc(C#Cc3ccc(F)cc3)cc2O[C@H]1CN(C)C(=O)NC1CCCCC1` was tested. Which AC35 did it give?
**A.** Its AC35 is 11.9 µM.

**Q.** With `C/C(=N\Nc1ncnc2sc(C)c(C)c12)c1ccccn1` as the molecule, how does the AC35 read?
**A.** The AC35 was 0.572 µM.

**Q.** With `CCOC(=O)c1ccc(-c2c(-c3cc(OC)c(OC)c(OC)c3)noc2C)cc1F` as the molecule, how does the AC35 read?
**A.** Its AC35 is 5.6 µM.

**Q.** How did the AC35 turn out when `O=C(N/N=C/c1c(O)ccc2ccccc12)C(=O)N1CCCC1` was run?
**A.** Its AC35 is 15.7 µM.

**Q.** Which AC35 does the source give for `O=C(Nc1cccc(F)c1)N1CCCCN2[C@@H](CO)[C@H](c3ccc(C#CC4CC4)cc3)[C@@H]2C1` here?
**A.** Its AC35 is 10.1 µM.

**Q.** How did the AC35 turn out when `C[C@@H]1CN([C@@H](C)CO)C(=O)Cc2cc(N(C)C)ccc2O[C@@H]1CN(C)Cc1ccc(C(=O)Nc2ccccc2N)cc1` was run?
**A.** The AC35 was 11.5 µM.

**Q.** How did the AC35 turn out when `O=C1c2cccc3c(O)ccc(c23)C(=O)N1Cc1ccco1` was run?
**A.** The AC35 was 15.6 µM.

**Q.** How did the AC35 turn out when `CC(=O)c1cccc(Nc2c3c(nc4ccccc24)CCC3)c1` was run?
**A.** The AC35 was 17.9 µM.

**Q.** For `COc1cc(OC)c2c(-c3cccc(-c4sccc4C(C)=O)c3)cc(=O)oc2c1`, which AC35 is on record?
**A.** Its AC35 is 7.12 µM.

**Q.** `CCc1ccc(N2CC(C(=O)Nc3ccccc3N3CCCC3)CC2=O)cc1` (stereo not given) was tested. Which AC35 did it give?
**A.** The AC35 was 10.8 µM.

**Q.** `Cc1ccc(/C=N/NC(=O)c2ccc3ccccc3c2)s1` was tested. Which AC35 did it give?
**A.** Its AC35 is 9.16 µM.

**Q.** With `COc1cc(OC)cc(C(=O)OCC(=O)NC(c2ccccc2)c2ccccc2)c1` as the molecule, how does the AC35 read?
**A.** The AC35 was 16.2 µM.

**Q.** With `O=C(Cc1ccccc1)N1CC(=O)N2[C@H](C1)[C@@H](c1ccc(C#Cc3ccccc3)cc1)[C@@H]2CO` as the molecule, how does the AC35 read?
**A.** The AC35 was 20.3 µM.

**Q.** How did the AC35 turn out when `COc1ccc(OC)c(Nc2cc(C)nc3ccc(C)cc23)c1` was run?
**A.** Its AC35 is 2.93 µM.

**Q.** How did the AC35 turn out when `COc1cccc2c1C(=O)c1c(O)c3c(c(O)c1C2=O)CC(O)(C(C)=O)CC3OC1CC(N(C)C)C(O)C(C)O1` (stereo not given) was run?
**A.** Its AC35 is 0.0849 µM.

**Q.** With `CCOC(=O)N1CCC(NC(=O)c2ccc3c(c2)N=C(C)c2c(C)ccc(C)c2S3)CC1` as the molecule, how does the AC35 read?
**A.** Its AC35 is 2.44 µM.

**Q.** With `C=C1C(=O)O[C@@H]2[C@H]1[C@@H](OC(=O)/C(C)=C/C)C/C(C)=C\C(=O)/C=C(\C)[C@@H]2O` as the molecule, how does the AC35 read?
**A.** The AC35 was 8.97 µM.

**Q.** `Cn1cccc1/C=C1\SC(=Nc2ccccc2)NC1=O` was tested. Which AC35 did it give?
**A.** The AC35 was 4.22 µM.

**Q.** For `Cc1c(C(=O)N/N=C/c2c(O)ccc3ccccc23)nnn1-c1nonc1N`, which AC35 is on record?
**A.** The AC35 was 1.32 µM.

**Q.** For `CC(=O)Nc1ccc2cc3ccc(NC(C)=O)cc3nc2c1`, which AC35 is on record?
**A.** The AC35 was 11.6 µM.

**Q.** With `COc1cc(C(=O)Nc2ccc3c(c2)CCN3C(C)=O)cc(OC)c1OC` as the molecule, how does the AC35 read?
**A.** The AC35 was 3.94 µM.

**Q.** With `O=C1/C(=C\c2cc(Cl)c(O)c(Cl)c2)SC(=S)N1Cc1ccccc1` as the molecule, how does the AC35 read?
**A.** The AC35 was 15.4 µM.

**Q.** For `COc1cc(OC)c(-c2c3cc(O)c(=O)cc-3oc3cc(O)c(O)cc23)cc1OC`, which AC35 is on record?
**A.** The AC35 was 13.2 µM.

**Q.** Which AC35 does the source give for `COc1ccc(S(=O)(=O)Nc2cc3c(cc2C(C)=O)OCO3)cc1` here?
**A.** Its AC35 is 12.9 µM.

**Q.** Which AC35 does the source give for `CCCCN1C(=O)CC(C(=O)OCC)=C1C` here?
**A.** The AC35 was 22 µM.

**Q.** Which AC35 does the source give for `CC(=O)Nc1ccc(S(=O)(=O)NC2=C(N3CCN(Cc4ccccc4)CC3)C(=O)c3ccccc3C2=O)cc1` here?
**A.** The AC35 was 17.1 µM.

**Q.** How did the AC35 turn out when `CCCC(=O)NC(c1ccc(Cl)cc1)c1ccc2cccnc2c1O` (stereo not given) was run?
**A.** The AC35 was 1.77 µM.

**Q.** With `CNc1ccc2c3c(cccc13)C(=O)N(C)C2=O` as the molecule, how does the AC35 read?
**A.** The AC35 was 15.7 µM.

**Q.** Which AC35 does the source give for `C[C@@H]1CCCCO[C@H](CN(C)Cc2ccc(Cl)c(Cl)c2)[C@@H](C)CN([C@@H](C)CO)C(=O)c2cc(NS(=O)(=O)c3ccc(Cl)cc3)ccc2O1` here?
**A.** The AC35 was 10.6 µM.
